Measured values reported in article PMC11249626, “Fluorophore-Labeled Pyrrolones Targeting the Intracellular Allosteric Binding Site of the Chemokine Receptor CCR1” (ACS Pharmacology & Translational Science, 2024).

Molecular target: T1, CCR9 (Homo sapiens, UniProt P51686)
T1 construct: host or cells: HEK293T, transient
T1 sequence (P51686 1-369): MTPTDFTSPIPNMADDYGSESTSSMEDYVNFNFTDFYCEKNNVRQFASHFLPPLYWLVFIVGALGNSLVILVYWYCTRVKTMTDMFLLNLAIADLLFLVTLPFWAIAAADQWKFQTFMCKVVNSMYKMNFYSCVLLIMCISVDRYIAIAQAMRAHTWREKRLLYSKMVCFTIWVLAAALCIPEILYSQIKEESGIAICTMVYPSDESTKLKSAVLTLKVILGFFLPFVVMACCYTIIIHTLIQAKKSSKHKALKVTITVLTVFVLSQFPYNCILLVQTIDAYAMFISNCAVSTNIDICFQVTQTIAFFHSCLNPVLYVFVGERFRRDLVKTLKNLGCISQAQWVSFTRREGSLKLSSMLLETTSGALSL
Experiment: NanoBRET-based assay for binding to the IABS of CCR9, as previously reported
Conditions: up to a concentration of 20 μM
Description: With 6 (Figure 1), a first lead structure for intracellular CCR1 inhibition that features an approximately 20-fold CCR1 over CCR2 selectivity was previously discovered by Ortiz Zacarías et al.([33]) In order to discover new chemotypes for selective CCR1 over CCR2 inhibition, we aimed to apply our novel NanoBRET competition binding assay for CCR1 in combination with our recently published CCR2 competition binding assay based on 7.[47] In our first attempt, we screened a small in-house library enriched with intracellular GPCR ligands and structural analogues thereof. […] Additionally, we tested 23 for binding to the IABS of CCR9 and CXCR2 using our recently reported NanoBRET-based assay platform (Figure 6C).[44],[45] In the course of these studies, we detected no binding of 23 to CCR9 and CXCR2 up to a concentration of 20 μM. Since cell lineage-dependent effects have been observed for CCR1 antagonists,[59] we studied the CCR1 over CCR2 selectivity of 23 by using a previously reported radioligand binding assay with membrane preparations from osteosarcoma (U2OS) cells stably expressing human CCR1 or CCR2.[33] […] In agreement with these previous reports,[33] we observed a reduction in CCR1 over CCR2 selectivity when moving from membrane-based binding assays to cell-based functional assays. […]

Binding to the IABS of CCR9: no binding
SMILES: O=C(C1=C(O)C(=O)N(CCc2ccc(O)cc2)C1c1ccc(F)cc1)c1ccccc1 (racemic) [compound 23]
